# Results from patent publication US20200061047A1, “NEW USE OF RIFAMYCIN-QUINOLIZIDONE DUAL-ACTION MOLECULE” (TenNor Therapeutics Limited, priority 2017, published 2020).
# Read-outs that look alike come from different tables or passages of the source.
# Columns and labels:
# Format in all cases: cell-based
# [1] = system: Streptococcus salivarius ATCC 25975; assay: MIC, agar dilution drug sensitivity test
# [2] = system: Staphylococcus saprophyticus JMI 2016_703; assay: MIC, agar dilution drug sensitivity test; conditions: Aerobic
# [3] = system: Bacteroides vulgatus JMI 927011; assay: MIC, agar dilution drug sensitivity test; conditions: Phocaeicola vulgatus, JMI927011
# [4] = system: Corynebacterium urealyticum JMI 2015_30; assay: MIC, agar dilution drug sensitivity test; conditions: Aerobic
# [5] = system: Haemophilus influenzae ATCC 49247; assay: MIC, microscale broth dilution drug sensitivity test
# Description: (§1) In this embodiment, compound I-rifamycin-quinolizidone dual-action molecule is used in a drug sensitivity test on pathogenic bacteria associated with hepatic encephalopathy, the pathogenic bacteria including the above ammonia-producing bacteria. Except that Haemophilus is tested using the microscale broth dilution method, all the other bacteria are tested using the agar dilution method consistent with that in the Guideline of the Clinical and Laboratory Standards Institute (CLSI; 1-3). All the other drug susceptibility tests are performed under anaerobic conditions except that some selective isolates are tested under both aerobic and anaerobic conditions. Control compounds include metronidazole, rifampicin, clindamycin (under anaerobic conditions) and ciprofloxacin (under aerobic and anaerobic conditions). The tested clinical isolates may be reference strains obtained from American Type Culture Collection, ATCC, Manassas, Va. After being received, the strains are respectively inoculated on appropriate agar plates and placed under optimized conditions for growth. The growing strains are cloned in the broth containing cryoprotectant to prepare bacterial suspensions, and the bacterial suspensions are subpackaged and then stored in freezing at −80° C. Before test, the frozen bacteria are inoculated into appropriate agar dishes and cultured for growth. Anaerobic bacteria grow for 48 hours at 35° C. in a Bactron II oxygen-free cabinet (Shel Lab, Cornelius, Oreg.) before test. Haemophilus Test Medium (HTM, Teknova, Hollister, Calif.; Art. No.: 895120) is used to perform drug sensitivity test on Hemophilus using the microscale broth dilution method under aerobic and anaerobic conditions. Preparation and storage of all the above broths are performed in accordance with CLSI (1-3).
# [6] = system: Haemophilus parainfluenzae ATCC 49247; assay: as above; conditions: ATCC49247
# Description: as §1
# [7] = system: Streptococcus pneumoniae ATCC 49619; assay: MIC, agar dilution drug sensitivity test
# [8] = system: Alcaligenes faecalis JMI 940880; assay: MIC, agar dilution drug sensitivity test; conditions: JMI940880, Aerobic
# [9] = system: Serratia marcescens ATCC 43862; assay: MIC, agar dilution drug sensitivity test
# [10] = system: Enterobacter aerogenes ATCC 13048; assay: MIC, agar dilution drug sensitivity test
# [11] = system: Proteus vulgaris ATCC 1331; assay: MIC, agar dilution drug sensitivity test
# [12] = system: Bordetella avium ATCC 6945; assay: MIC, agar dilution drug sensitivity test
# [13] = system: Streptococcus parasanguinis MMX 5671; assay: MIC, agar dilution drug sensitivity test
# [14] = system: Actinomyces naeslundii JMI 534283; assay: MIC, agar dilution drug sensitivity test; conditions: JMI534283, Aerobic
# [15] = system: Clostridium difficile ATCC 700057; assay: MIC, agar dilution drug sensitivity test; conditions: Clostridioides difficile, ATCC700057
# [16] = system: Escherichia coli ATCC 25922; assay: MIC, agar dilution drug sensitivity test; conditions: ATCC25922, Table 1
# [17] = system: Lactobacillus salivarius JMI 941623; assay: MIC, agar dilution drug sensitivity test; conditions: Ligilactobacillus salivarius, JMI941623, Table 1
# [18] = system: Morganella morganii MMX 6123; assay: MIC, agar dilution drug sensitivity test; conditions: MMX6123, Table 1
# [19] = system: Eggerthella lenta ATCC 43055; assay: MIC, agar dilution drug sensitivity test; conditions: ATCC43055, Table 1
# [20] = system: Klebsiella oxytoca JMI 933995; assay: MIC, agar dilution drug sensitivity test; conditions: JMI933995, Table 1
# [21] = system: Fusobacterium necrophorum ATCC 25286; assay: MIC, agar dilution drug sensitivity test; conditions: ATCC25286, Table 1
# [22] = system: Proteus mirabilis JMI 933599; assay: MIC, agar dilution drug sensitivity test; conditions: JMI933599, Table 1
# [23] = system: Clostridium perfringens ATCC 13124; assay: microbe, parasite or virus in culture; conditions: ATCC13124
# [24] = system: Yersinia enterocolitica ATCC 23715; assay: MIC, agar dilution drug sensitivity test; conditions: ATCC23715, Table 1
# [25] = system: Bacteroides bifidum ATCC 1569; assay: MIC, agar dilution drug sensitivity test; conditions: ATCC1569, Table 1
# [26] = system: Salmonella spp ATCC 35987; assay: MIC, agar dilution drug sensitivity test; conditions: ATCC35987, Table 1
# Description: In this embodiment, compound I-rifamycin-quinolizidone dual-action molecule is used in a drug sensitivity test on pathogenic bacteria associated with hepatic encephalopathy, the pathogenic bacteria including the above ammonia-producing bacteria. Except that Haemophilus is tested using the microscale broth dilution method, all the other bacteria are tested using the agar dilution method consistent with that in the Guideline of the Clinical and Laboratory Standards Institute (CLSI; 1-3). All the other drug susceptibility tests are performed under anaerobic conditions except that some selective isolates are tested under both aerobic and anaerobic conditions. Control compounds include metronidazole, rifampicin, clindamycin (under anaerobic conditions) and ciprofloxacin (under aerobic and anaerobic conditions).
# The tested clinical isolates may be reference strains obtained from American Type Culture Collection, ATCC, Manassas, Va. After being received, the strains are respectively inoculated on appropriate agar plates and placed under optimized conditions for growth. The growing strains are cloned in the broth containing cryoprotectant to prepare bacterial suspensions, and the bacterial suspensions are subpackaged and then stored in freezing at −80° C. Before test, the frozen bacteria are inoculated into appropriate agar dishes and cultured for growth. Anaerobic bacteria grow for 48 hours at 35° C. in a Bactron II oxygen-free cabinet (Shel Lab, Cornelius, Oreg.) before test. […]
# The Minimum Inhibitory Concentration (MIC) is determined using the agar dilution method.
# The MIC values of all microorganisms except Haemophilus are determined using the agar dilution method in the CLSI (1-2). […] After culturing, the MIC is determined in accordance with the CLSI guideline (1-2).
# [27] = system: Bifidobacterium infantis subsp. Infantis ATCC 15702; assay: MIC, agar dilution drug sensitivity test; conditions: ATCC15702, Table 1
# [28] = system: Helicobacter pylori ATCC 700824; assay: MIC, agar dilution drug sensitivity test; conditions: ATCC700824, Table 1
# [29] = system: Proteus vulgaris MMX 6454; assay: MIC, agar dilution drug sensitivity test; conditions: MMX6454, Table 1
# [30] = system: Peptostreptococcus prevotii ATCC 9321; assay: MIC, agar dilution drug sensitivity test; conditions: Anaerococcus prevotii, ATCC9321, Table 1
# [31] = ATCC49247, Haemophilus influenzae ATCC 49247, Aerobic
# [32] = ATCC49247, Haemophilus influenzae ATCC 49247, Anaerobic
smiles,measurement,setting,value
"CO[C@H]1/C=C/O[C@@]2(C)Oc3c(C)c(O)c4c(O)c(c(/C=N/N5CCN(C)CC5)c(O)c4c3C2=O)NC(=O)/C(C)=C\C=C\[C@H](C)[C@H](O)[C@@H](C)[C@@H](O)[C@@H](C)[C@H](OC(C)=O)[C@@H]1C [Rifampicin, rifampicin]",MIC,"[1]; Streptococcus salivarius, ATCC25975, Streptococcus salivarius ATCC 25975, Aerobic, read-out: MIC",0.03 µg/mL
same,MIC,"[1]; Streptococcus salivarius, ATCC25975, Streptococcus salivarius ATCC 25975, Anaerobic, read-out: MIC",32 µg/mL
same,MIC,[2],1 µg/mL
same,MIC,[3],0.06 µg/mL
same,MIC,[4],0.004 µg/mL
same,MIC,[5]; [31],0.25 to 1 µg/mL
same,MIC,[5]; [32],0.25 µg/mL
same,MIC,"[6]; Haemophilus parainfluenzae ATCC 49247, Aerobic, read-out: MIC",0.5 µg/mL
same,MIC,"[7]; ATCC49619, Streptococcus pneumoniae ATCC 49619, Aerobic, read-out: MIC",0.03 µg/mL
same,MIC,"[7]; ATCC49619, Streptococcus pneumoniae ATCC 49619, Anaerobic, read-out: MIC",0.12 µg/mL
same,MIC,[8],16 µg/mL
same,MIC,"[9]; Serratia marcescens, ATCC43862, Serratia marcescens ATCC 43862, Aerobic, read-out: MIC",64 µg/mL
same,MIC,"[9]; Serratia marcescens, ATCC43862, Serratia marcescens ATCC 43862, Anaerobic, read-out: MIC",64 µg/mL
same,MIC,"[10]; Klebsiella aerogenes, ATCC13048, Enterobacter aerogenes ATCC 13048, Aerobic, read-out: MIC",64 µg/mL
same,MIC,"[10]; Klebsiella aerogenes, ATCC13048, Enterobacter aerogenes ATCC 13048, Anaerobic, read-out: MIC",64 µg/mL
same,MIC,"[11]; Proteus vulgaris, ATCC1331, Proteus vulgaris ATCC 1331, Aerobic, read-out: MIC",16 µg/mL
same,MIC,"[11]; Proteus vulgaris, ATCC1331, Proteus vulgaris ATCC 1331, Anaerobic, read-out: MIC",8 µg/mL
same,MIC,"[12]; Bordetella avium, ATCC6945, Bordetella avium ATCC 6945, Aerobic, read-out: MIC",16 µg/mL
same,MIC,"[12]; Bordetella avium, ATCC6945, Bordetella avium ATCC 6945, Anaerobic, read-out: MIC",64 µg/mL
same,MIC,"[13]; Streptococcus parasanguinis, MMX5671, Streptococcus parasanguinis MMX 5671, Aerobic, read-out: MIC",0.03 µg/mL
same,MIC,"[13]; Streptococcus parasanguinis, MMX5671, Streptococcus parasanguinis MMX 5671, Anaerobic, read-out: MIC",16 µg/mL
same,MIC,[14],< 0.002 µg/mL
"CO[C@H]1/C=C/O[C@@]2(C)Oc3c(C)c(O)c4c(O)c(c5c(nc6cc(C)ccn65)c4c3C2=O)NC(=O)/C(C)=C\C=C\[C@H](C)[C@H](O)[C@@H](C)[C@@H](O)[C@@H](C)[C@H](OC(C)=O)[C@@H]1C [Rifaximin, rifaximin]",MIC,[15],0.004 µg/mL
same,MIC,[16],8 µg/mL
same,MIC,[17],1 µg/mL
same,MIC,[18],16 µg/mL
same,MIC,[19],0.12 µg/mL
same,MIC,[20],32 µg/mL
same,MIC,[21],16 µg/mL
same,MIC,[22],8 µg/mL
same,MIC,[23],0.12 µg/mL
same,MIC,[24],8 µg/mL
same,MIC,[25],0.5 µg/mL
same,MIC,[26],16 µg/mL
same,MIC,[27],0.25 µg/mL
same,MIC,[28],2 µg/mL
same,MIC,[29],4 µg/mL
same,MIC,[30],0.03 µg/mL
"Cc1ncc([N+](=O)[O-])n1CCO [Metronidazole, metronidazole]",MIC,"[1]; Streptococcus salivarius ATCC 25975, Anaerobic",>256 µg/mL
same,MIC,"[1]; Streptococcus salivarius, ATCC25975",> 256 µg/mL
same,MIC,[15],0.5 µg/mL
same,MIC,[5]; [31],64 µg/mL
same,MIC,[5]; [32],64 µg/mL
same,MIC,[6]; Haemophilus parainfluenzae,128 µg/mL
same,MIC,"[7]; ATCC49619, Streptococcus pneumoniae ATCC 49619, Aerobic",> 256 µg/mL
same,MIC,"[7]; ATCC49619, Streptococcus pneumoniae ATCC 49619, Anaerobic",128 µg/mL
same,MIC,[19],1 µg/mL
same,MIC,[21],0.12 µg/mL
same,MIC,"[9]; Serratia marcescens ATCC 43862, Anaerobic",>256 µg/mL
same,MIC,"[9]; Serratia marcescens, ATCC43862",> 256 µg/mL
same,MIC,"[10]; Enterobacter aerogenes ATCC 13048, Anaerobic",>256 µg/mL
same,MIC,"[10]; Klebsiella aerogenes, ATCC13048",> 256 µg/mL
same,MIC,[23],2 µg/mL
same,MIC,"[11]; Proteus vulgaris ATCC 1331, Anaerobic",>256 µg/mL
same,MIC,"[11]; Proteus vulgaris, ATCC1331",> 256 µg/mL
same,MIC,[25],8 µg/mL
same,MIC,"[12]; Bordetella avium ATCC 6945, Anaerobic",>256 µg/mL
same,MIC,"[12]; Bordetella avium, ATCC6945",> 256 µg/mL
same,MIC,[27],16 µg/mL
same,MIC,"[13]; Streptococcus parasanguinis MMX 5671, Anaerobic",>256 µg/mL
same,MIC,"[13]; Streptococcus parasanguinis, MMX5671",> 256 µg/mL
same,MIC,[30],256 µg/mL
